From patent publication US8710099B2, “Treatment of cancer using the sodium salt of a benzoic acid derivative” (New York University, priority 2009, dated 2014)

Tests used:
[1] = test system: Human M21 melanoma cells; test: M21 melanoma cell proliferation, MTT assay; assay type: cell-based
Method: (§1) Human M21 melanoma cells were washed and re-suspended in proliferation buffer containing 1.0% serum in the presence or absence of 100 ng/mL of C-45-Na, or C-45-HCl. DMSO control samples lacking C-45-Na or C-45-HCl were also prepared. Treated cells (1,500/well) were added to individual wells of a cell culture microtiter plate and allowed to grow over a time course of 3 days. Proliferation was monitored using a commercially available MTT assay (Millipore). Data points represent the mean±standard deviations from triplicate wells.
as §1, with “C-45-HCl.” for “C-45-HCl. DMSO control samples lacking C-45-Na or C-45-HCl were also prepared.”
as §1, with “0.5%” for “1.0%”, “presence” for “presence or absence”, “50 μg/mL” for “100 ng/mL”, “C-45-Na, C-45-K,” for “C-45-Na,”, “C-45-Na, C-45-K, and” for “C-45-Na or”
(§2) In Example 6, the differential effects of C-45-Na on normal human melanocytes, normal human keratinocytes and human melanoma cells were examined Normal human melanocytes, keratinocytes and M21 melanoma cells were allowed to proliferate in the presence or absence of C-45-Na (50 μg/mL) for 24 hours. Proliferation was monitored using a commercially available MTT assay (Millipore).

[2] = test system: C8161 human melanoma cells; test: C8161 melanoma cell proliferation, MTT assay; assay type: cell-based; conditions: 100 μg/mL, 0.5% serum, 3 days; FIG. 13A
Method: as §1, with “C8161 and A375 human melanoma” for “Human M21 melanoma”, “containing 0.5%” for “containing 1.0%”, “presence” for “presence or absence”, “100 μg/mL” for “100 ng/mL”, “of C-45-Na” for “of C-45-Na,”, “C-45-Na and” for “C-45-Na or”

[3] = test system: A375 human melanoma cells; test: A375 melanoma cell proliferation, MTT assay; assay type: cell-based; conditions: 100 μg/mL, 0.5% serum, 3 days; FIG. 13B
Method: as §1, with “C8161 and A375 human melanoma” for “Human M21 melanoma”, “containing 0.5%” for “containing 1.0%”, “presence” for “presence or absence”, “100 μg/mL” for “100 ng/mL”, “of C-45-Na” for “of C-45-Na,”, “C-45-Na and” for “C-45-Na or”

[4] = test system: MDA-MB 231 human breast carcinoma cells; test: MDA-MB 231 breast carcinoma proliferation, MTT assay; assay type: cell-based; conditions: 100 μg/mL, 0.5% serum, 3 days; FIG. 14A
Method: as §1, with “MDA-MB 231 human breast carcinoma cells” for “Human M21 melanoma cells”, “containing 0.5%” for “containing 1.0%”, “presence” for “presence or absence”, “100 μg/mL” for “100 ng/mL”, “of C-45-Na” for “of C-45-Na,”, “C-45-Na and” for “C-45-Na or”

[5] = test system: Panc-1 human pancreatic carcinoma cells; test: Panc-1 pancreatic carcinoma proliferation, MTT assay; assay type: cell-based; conditions: 4.7, 9.3, 17.3, 37.5, and 75 μg/mL, 3 days; FIG. 14B
Method: Panc-1 human pancreatic carcinoma cells were allowed to proliferate over a 3-day time course in the presence or absence of a series of concentrations of C-45-Na (4.7, 9.3, 17.3, 37.5, and 75 μg/mL) of or C-45-HCl. DMSO control samples lacking C-45-Na and were also prepared. Treated cells (1,500/well) were added to individual wells of a cell culture microtiter plate and allowed to grow over a time course of 3 days. Proliferation was monitored using a commercially available MTT assay (Millipore). Data points represent the mean±standard deviations from triplicate wells.

[6] = test system: Human M21 melanoma cells; test: Melanoma cell morphology; assay type: cell-based; conditions: 100 μg/mL, 24 hours; FIG. 11A
Method: (§3) Human M21 melanoma cells or C8161 melanoma cells were incubated in the presence of 100 μg/mL of C-45-Na or C-45-HCl for 24 hours. DMSO control samples lacking C-45-Na and C-45-HCl were also prepared.

[7] = test system: C8161 melanoma cells; test: Melanoma cell morphology; assay type: cell-based, human; conditions: 100 μg/mL, 24 hours; FIG. 11B
Method: as §3

[8] = test system: Normal human melanocytes; test: Normal melanocyte proliferation, MTT assay; assay type: cell-based; conditions: 50 μg/mL, 24 hours; FIG. 12B
Method: as §2

[9] = test system: normal human keratinocytes; test: Normal keratinocyte proliferation, MTT assay; assay type: cell-based; conditions: 50 μg/mL, 24 hours; FIG. 12C
Method: as §2

[10] = test system: M21 melanoma cells; test: M21 melanoma tumor growth in nude mice; assay type: in vivo
Method: Briefly, M21 melanoma cells (4.0×10^6) were injected subcutaneously in nude mice. Following establishment of palpable tumors (4 days), mice were either left untreated or treated daily by i.p injection with DMSO (50 μl/day), or with C-45-Na (50 μl/day) or C-45-HCl (50 μl/day) at a concentration range of 1-100 ug/day. Tumor size was monitored by caliper measurements and tumor volumes were estimated using the formula (L^2×W/2) where “L” represents length, and “W” represents width.
The effects of C45-Na on M21 melanoma tumor growth in vivo were studied. Briefly, M21 melanoma cells (4.0×10^6) were injected subcutaneously in nude mice. Following establishment of palpable tumors (4 days), mice were either left untreated or treated daily by i.p injection with DMSO (50 μl/day), or with C-45-Na concentrations of 0.1, 0.5, or 1.0 μg/day. Tumor size was monitored by caliper measurements and tumor volumes were estimated using the formula (L^2×W/2) where “L” represents length, and “W” represents width.
In experiment 11, an activity comparison between C-45-Na (1.0 μg) and C45-HCl (1.0 μg) on the in vivo growth of M21 tumors was examined following daily treatment after 21 days. Tumor size was monitored by caliper measurements and tumor volumes were estimated using the formula (L^2×W/2) where “L” represents length, and “W” represents width.

C=CCNc1ccc(C(=O)[O-])cc1.[Na+] [C-45-Na, Sodium 4-allylaminobenzoate]
selectivity, tumor cells versus normal human cells ([1]; 50 μg/mL, 24 hours, M21 vs melanocytes and keratinocytes): selective for tumor cell proliferation rather than normal human cells
M21 tumor cell proliferation ([1]; Experiment 1: 100 ng/mL, 1.0% serum, 3 days, FIG. 6): very potent anti-proliferative activity
M21 tumor cell proliferation ([1]; Experiment 2: 100 ng/mL, 1.0% serum, 3 days, FIG. 7): very potent anti-proliferative activity
M21 tumor cell proliferation ([1]; Experiment 3: 50 μg/mL, 0.5% serum, 3 days, FIG. 15): very potent anti-proliferative activity
M21 tumor cell proliferation ([1]; Experiment 8: 50 μg/mL, 24 hours, FIG. 12A): very potent anti-proliferative activity
C8161 tumor cell proliferation [2]: very potent anti-proliferative activity
A375 tumor cell proliferation [3]: very potent anti-proliferative activity
MDA-MB 231 cell proliferation [4]: very potent anti-proliferative activity
panc-1 cell proliferation [5]: very potent anti-proliferative activity
cell morphology, M21 [6]: significant cell rounding
cell morphology, C8161 [7]: significant cell rounding
effect on proliferation of normal human melanocytes [8]: very little effect
effect on proliferation of normal human keratinocytes [9]: very little effect
inhibition of M21 melanoma tumor growth ([10]; Experiment 9: daily i.p., 1.0 μg/day): Significant inhibition
inhibition of tumor growth ([10]; Experiment 10: daily i.p., 0.1, 0.5, or 1.0 μg/day, days 8, 14, and 21 (P<0.05), FIG. 16): significant inhibition of tumor growth
inhibition of tumor growth ([10]; Experiment 11: 1.0 μg daily, day 21 (P<0.05), FIG. 17): significant inhibition of tumor growth
